Measured values reported in US20110165115A1, “SYNERGISTIC ATTRACTANTS FOR PESTIFEROUS SOCIAL INSECTS” (STERLING INTERNATIONAL INC., priority 2010, published 2011).

Columns and labels:
D. maculata [1] = experiment: Field trapping Experiment 1, Rescue W•H•Y traps; assay type: in vivo, Dolichovespula maculata; conditions: Exp 1; HIPV added to WHY attractant in the top chamber, or WHY alone
Protocol: (§1) Three field trapping experiments were carried out during late July to early August 2009, in residential and woody areas around Spokane, Wash., USA, using the newly marketed Rescue® W•H•Y traps (www.rescue.com). As used herein, the W•H•Y trap is a trap in accordance with the description of United States Patent Application Publication No. 2009/0151228. The W•H•Y trap has a top chamber and a bottom chamber. The top chamber is baited with two attractants—one of which is a solid contained in a vial (2-methyl-1-butanol) and the other a liquid mixed with water (acetic acid), herein referred to as the W•H•Y top attractant. The bottom chamber is baited with a liquid attractant (heptyl butyrate) poured onto a cotton pad, herein referred to as the W•H•Y bottom attractant. Separation of the top and bottom attractants (otherwise antagonistic to each other when released from the same chamber) in two chambers was a design feature of this trap and creates two focal attraction sources from one trap for different species of wasps, hornets, and yellowjackets. Traps were hung 1.5-2.0 m above the ground on either the fence or tree branches ca. 5 m apart within each trap line. For each trapping experiment, six sets of traps were deployed with their initial trap positions within each set being randomized. To minimize positional effects and obtain more replications, wasp collections and trap re-randomization were carried out when ≧10-20 wasps were caught in the best trap. Each replicate lasted several days depending on wasp flight activity. Captured wasps were removed from the traps and kept in the zip-bags before taking back to the laboratory for recording of the species, gender status, and catch.
(§2) Experiment 1 (Jul. 22-30, 2009) tested ten synthetic HIPV candidates [(E)-2-hexenal, (Z)-3-hexen-1-ol, (Z)-3-hexenyl acetate, cis-ocimene, linalool, methyl salicylate, geranyl acetate, trans-β-caryophyllene, trans-β-farnesene and (E)-4,8-dimethyl-1,3,7-nonatriene], including several paper wasp EAD-active compounds (see FIG. 2 for details), to determine their potential synergistic effect on the Rescue® W•H•Y trap attractants to paper wasps, yellowjackets, and hornets. Experiment 2 (Aug. 5-13, 2009) tested behavioral responses of the paper wasps and yellowjackets to the Rescue® W•H•Y trap attractants (top attractants only) and its combination with (E)-4,8-dimethyl-1,3,7-nonatriene, one of the EAD-active and behaviorally significant HIPVs, in a dose-response fashion. Experiment 3 (Aug. 5-13, 2009) was conducted to determine the potential behavioral activity of different doses of (E)-4,8-dimethyl-1,3,7-nonatriene alone. The individual (or different doses) HIPVs were loaded into either polyethylene bags or centrifuge tube type of dispensers, and released from the top of the W•H•Y trap chamber. W•H•Y trap attractants (both top and bottom or top only) alone and water (top chamber only) were included in the test as positive and blank controls, respectively. The dispenser types, loading and release rates of the tested semiochemicals are described in Tables 1, 2 and 3.
(§3) Trap catch data were converted to proportion (P) of total captured wasps within each replicate. Data were then transformed by arcsin√P to meet the assumptions of normality and homogeneity of variances for ANOVA. Means were compared by ANOVA followed by the Ryan-Einot-Gabriel-Welsh (REGW) multiple Q test (SPSS 16.0 for Windows) at α=0.05.

V. acadica [2] = experiment: Field trapping Experiment 1, Rescue W•H•Y traps; assay type: in vivo, Vespula acadica; conditions: Exp 1; HIPV added to WHY attractant in the top chamber, or WHY alone
Protocol: as §1
(§4) Experiment 3 (Aug. 5-13, 2009) was conducted to determine the potential behavioral activity of different doses of (E)-4,8-dimethyl-1,3,7-nonatriene alone. The individual (or different doses) HIPVs were loaded into either polyethylene bags or centrifuge tube type of dispensers, and released from the top of the W•H•Y trap chamber. W•H•Y trap attractants (both top and bottom or top only) alone and water (top chamber only) were included in the test as positive and blank controls, respectively. The dispenser types, loading and release rates of the tested semiochemicals are described in Tables 1, 2 and 3.
as §3

P. dominulus [3] = experiment: Field trapping Experiment 1, Rescue W•H•Y traps; assay type: in vivo, Polistes dominulus; conditions: Exp 1; HIPV added to WHY attractant in the top chamber, or WHY alone
Protocol: as §1, §4, §3

D. maculata [4] = experiment: Field trapping Experiment 2, DMNT dose-response with W•H•Y top attractants; assay type: in vivo, Dolichovespula maculata; conditions: Exp 2, DMNT added to WHY top attractant
Protocol: as §1, §2, §3

P. dominulus [5] = experiment: as above; assay type: in vivo, Polistes dominulus; conditions: Exp 2, DMNT added to WHY top attractant
Protocol: as §1, §4, §3

P. aurifer [6] = experiment: as above; assay type: in vivo, Polistes aurifer; conditions: Exp 2, DMNT added to WHY top attractant
Protocol: as §1, §4, §3

V. vulgaris = experiment: Field trapping Experiment 3, different doses of DMNT alone; assay type: in vivo, Vespula vulgaris
Protocol: as §1, §4, §3

V. acadica [7] = experiment: as above; assay type: in vivo, Vespula acadica
Protocol: as §1, §4, §3

V. germanica = experiment: as above; assay type: in vivo, Vespula germanica
Protocol: as §1, §4, §3

P. aurifer [8] = experiment: as above; assay type: in vivo, Polistes aurifer
Protocol: as §1, §4, §3

yellowjackets = experiment: Field trapping Experiment 1, top chamber catches; assay type: in vivo; conditions: Exp 1; HIPV combined with W•H•Y attractant (acetic acid and 2-methyl-1-butanol) in the top chamber
Protocol: as §1
(§5) Experiment 3 (Aug. 5-13, 2009) was conducted to determine the potential behavioral activity of different doses of (E)-4,8-dimethyl-1,3,7-nonatriene alone. The individual (or different doses) HIPVs were loaded into either polyethylene bags or centrifuge tube type of dispensers, and released from the top of the W•H•Y trap chamber. […]

paper wasps = experiment: Field trapping Experiment 1, top chamber catches; assay type: in vivo, P. dominulus and P. aurifer; conditions: Exp 1; HIPV combined with W•H•Y attractant (acetic acid and 2-methyl-1-butanol) in the top chamber
Protocol: as §1, with “To minimize positional effects and obtain more replications, wasp collections and trap re-randomization were carried out when ≧10-20 wasps were caught in the best trap. Each replicate lasted several days depending on wasp flight activity. Captured wasps were removed from the traps and kept in the zip-bags before taking back to the laboratory for recording of the species, gender status, and catch.” left out

[9] = system: paper wasps, yellowjackets, or hornets; experiment: Field trapping Experiment 3, DMNT alone; assay type: in vivo; conditions: Exp 3, different doses alone, without any W•H•Y attractants
Protocol: as §1, with “To minimize positional effects and obtain more replications, wasp collections and trap re-randomization were carried out when ≧10-20 wasps were caught in the best trap. Each replicate lasted several days depending on wasp flight activity. Captured wasps were removed from the traps and kept in the zip-bags before taking back to the laboratory for recording of the species, gender status, and catch.” left out

[10] = system: paper wasps and yellowjackets; experiment: Field trapping bioassays, synergism with AA/2MB (summary); assay type: in vivo; conditions: at the doses tested
Protocol: as §1, §5

[11] = release rate 0.25, hole 0.5 mm, loading 15 μL
[12] = release rate 0.5, hole 1 mm, loading 30 μL
[13] = release rate 1, hole 2 mm, loading 75 μL
[14] = release rate 1.5, hole 3 mm, loading 175 μL
[15] = release rate 2, hole 5.5 mm, loading 325 μL
[16] = Exp 3, release rate 0.25, hole 0.5 mm, loading 15 μL
[17] = Exp 3, release rate 0.5, hole 1 mm, loading 30 μL
[18] = Exp 3, release rate 1, hole 2 mm, loading 75 μL
[19] = Exp 3, release rate 1.5, hole 3 mm, loading 175 μL
[20] = Exp 3, release rate 2, hole 5.5 mm, loading 325 μL

Q: With `CC/C=C\CCOC(C)=O` [Z-3-Hexenyl Acetate, (Z)-3-hexenyl acetate] as the molecule, how does the “Total Yellowjacket Catches D. maculata” value (D. maculata [1]) read?
A: 1

Q: What about the “Total Yellowjacket Catches V. acadica” value (V. acadica [2]) of the same molecule?
A: 1

Q: What about the “Total Paper Wasps P. dominulus” value (P. dominulus [3]) of the same molecule?
A: 40

Q: With `C=C/C=C(\C)CCC=C(C)C` [(E)-4,8-dimethyl-1,3,7-nonatriene] as the molecule, how does the “Total Yellowjacket Catches D. maculata” value (D. maculata [1]) read?
A: 12

Q: And the “Total Yellowjacket Catches V. acadica” value (V. acadica [2])?
A: 1

Q: And the “Total Paper Wasps P. dominulus” value (P. dominulus [3])?
A: 152

Q: And the “Total Yellowjackets Caught D. maculata” value (D. maculata [4]; [11])?
A: 0

Q: And the “Total Yellowjackets Caught D. maculata” value (D. maculata [4]; [12])?
A: 1

Q: And the “Total Yellowjackets Caught D. maculata” value (D. maculata [4]; [13])?
A: 1

Q: What about the “Total Yellowjackets Caught D. maculata” value (D. maculata [4]; [14]) of the same molecule?
A: 0

Q: What about the “Total Yellowjackets Caught D. maculata” value (D. maculata [4]; [15]) of the same molecule?
A: 0

Q: What about the “Total Paper Wasps Caught P. dominulus” value (P. dominulus [5]; [11]) of the same molecule?
A: 7

Q: And the “Total Paper Wasps Caught P. dominulus” value (P. dominulus [5]; [12])?
A: 2

Q: And the “Total Paper Wasps Caught P. dominulus” value (P. dominulus [5]; [13])?
A: 13

Q: What about the “Total Paper Wasps Caught P. dominulus” value (P. dominulus [5]; [14]) of the same molecule?
A: 8

Q: What about the “Total Paper Wasps Caught P. dominulus” value (P. dominulus [5]; [15]) of the same molecule?
A: 5

Q: What about the “Total Paper Wasps Caught P. aurifer” value (P. aurifer [6]; [11]) of the same molecule?
A: 0

Q: What about the “Total Paper Wasps Caught P. aurifer” value (P. aurifer [6]; [12]) of the same molecule?
A: 0

Q: What about the “Total Paper Wasps Caught P. aurifer” value (P. aurifer [6]; [13]) of the same molecule?
A: 0

Q: And the “Total Paper Wasps Caught P. aurifer” value (P. aurifer [6]; [14])?
A: 0

Q: And the “Total Paper Wasps Caught P. aurifer” value (P. aurifer [6]; [15])?
A: 0

Q: And the “Total Yellowjackets Caught V. vulgaris” value (V. vulgaris; [16])?
A: 4

Q: And the “Total Yellowjackets Caught V. vulgaris” value (V. vulgaris; [17])?
A: 6

Q: What about the “Total Yellowjackets Caught V. vulgaris” value (V. vulgaris; [18]) of the same molecule?
A: 4

Q: What about the “Total Yellowjackets Caught V. vulgaris” value (V. vulgaris; [19]) of the same molecule?
A: 2

Q: What about the “Total Yellowjackets Caught V. vulgaris” value (V. vulgaris; [20]) of the same molecule?
A: 5

Q: And the “Total Yellowjackets Caught V. acadica” value (V. acadica [7]; [16])?
A: 0

Q: And the “Total Yellowjackets Caught V. acadica” value (V. acadica [7]; [17])?
A: 0

Q: What about the “Total Yellowjackets Caught V. acadica” value (V. acadica [7]; [18]) of the same molecule?
A: 0

Q: What about the “Total Yellowjackets Caught V. acadica” value (V. acadica [7]; [19]) of the same molecule?
A: 0

Q: What about the “Total Yellowjackets Caught V. acadica” value (V. acadica [7]; [20]) of the same molecule?
A: 0

Q: What about the “Total Yellowjackets Caught V. germanica” value (V. germanica; [16]) of the same molecule?
A: 0

Q: And the “Total Yellowjackets Caught V. germanica” value (V. germanica; [17])?
A: 0

Q: And the “Total Yellowjackets Caught V. germanica” value (V. germanica; [18])?
A: 0

Q: And the “Total Yellowjackets Caught V. germanica” value (V. germanica; [19])?
A: 0

Q: And the “Total Yellowjackets Caught V. germanica” value (V. germanica; [20])?
A: 0

Q: What about the “Total Paper Wasps Caught P. aurifer” value (P. aurifer [8]; [16]) of the same molecule?
A: 3

Q: What about the “Total Paper Wasps Caught P. aurifer” value (P. aurifer [8]; [17]) of the same molecule?
A: 1

Q: And the “Total Paper Wasps Caught P. aurifer” value (P. aurifer [8]; [18])?
A: 0

Q: And the “Total Paper Wasps Caught P. aurifer” value (P. aurifer [8]; [19])?
A: 5

Q: And the “Total Paper Wasps Caught P. aurifer” value (P. aurifer [8]; [20])?
A: 0

Q: What about the “effect on trap catches of yellowjackets in the top chambers” value (yellowjackets) of the same molecule?
A: significantly increased

Q: And the “effect on trap catches of paper wasps in the top chambers” value (paper wasps)?
A: significantly increased

Q: What about the “attraction alone versus water blank control traps” value [9] of the same molecule?
A: not different

Q: What about the “attraction alone versus water blank control traps” value ([9]; listed as DMNT) of the same molecule?
A: not significantly attractive

Q: And the “synergism of attraction to mixture of acetic acid and 2-methyl-1-butanol” value [10]?
A: synergize

Q: What about the “synergism of attraction to mixture of acetic acid and 2-methyl-1-butanol” value ([10]; listed as (E)-4,8-dimenthyl-1,3,7-nonatriene) of the same molecule?
A: significantly synergize

Q: Which results are given for `COC(=O)c1ccccc1O` [Methyl Salicylate, methyl salicylate]?
A: Total Yellowjacket Catches D. maculata (D. maculata [1]): 1; Total Yellowjacket Catches V. acadica (V. acadica [2]): 0; Total Paper Wasps P. dominulus (P. dominulus [3]): 33

Q: What does the source list for `CC/C=C\CCO` [Z-3-Hexanol, (Z)-3-hexen-1-ol]?
A: Total Yellowjacket Catches D. maculata (D. maculata [1]): 5; Total Yellowjacket Catches V. acadica (V. acadica [2]): 0; Total Paper Wasps P. dominulus (P. dominulus [3]): 25
